Measured values taken from PMC10866072, “Design, synthesis, molecular modelling and biological evaluation of novel 6-amino-5-cyano-2-thiopyrimidine derivatives as potent anticancer agents against leukemia and apoptotic inducers” (Journal of Enzyme Inhibition and Medicinal Chemistry, 2024).
Read-outs that look alike come from different tables or passages of the source.

Legend:
leukaemia cell lines = test: NCI-60 five-dose, subpanel
Description: Furthermore, the average sensitivity of all cell lines to the compound is termed as the full panel mean graph midpoints (MG-MID). The complete panel mean graph midpoints refers to the average sensitivity of all cell lines to the chemical (MG-MID). A measure of a compound’s selectivity for a given cell line is the ratio created by dividing the full panel mean graph midpoints (MG-MID) concentration by the individual subpanel MG-MID concentrations (obtained as the average sensitivity of all the cell lines in a given subpanel to the test compound).
(§2) Assessment of selectivity of a compound depends on the ratio obtained by dividing the full panel MID ^a by their individual subpanel MID ^b (µM) where MID^a is the average sensitivity of all cell lines towards the test agent (µM).

T-47D = format: cell-based
OVCAR-5 = format: cell-based
RXF 393 = format: cell-based; details: five-dose
SK-OV-3 = format: cell-based
U251 = format: cell-based
MCF7 = format: cell-based
HL60 cells = test: Cell cycle analysis (propidium iodide, flow cytometry); format: cell-based, human; details: HL60, 48 h treatment
Description: (§1) Compound 1c was selected as a potent candidate, its effect on cell cycle phases of HL60 and leukaemia SR cells was investigated using propidium iodide staining and flow cytometric analysis according to the cell cycle kit (Abcam ®, ab139418-)[90]^,[91]^. Briefly, HL60 and leukaemia SR cells were cultured under optimum conditions. Afterwards, cells were treated by compound 1c for 48 h. Then, they were harvested, washed with PBS, and cell fixation was performed using ethanol on ice. Additionally, cells were pelleted at 500 xg for 5 min and supernatant was gently aspirated. Furthermore, fixed cells were washed by phosphate-buffered saline (PBS) and resuspended in 200 µl 1 x propidium iodide + RNAse staining solution and incubated in dark for 30 min. Finally, stained cells were tested by flow cytometer using FACSCalibur (Becton Dickinson Biosciences, CA, USA). Finally, Cell Quest software (Becton Dickinson Biosciences) was used to determine cell cycle distribution.

leukaemia SR cells = test: as above; format: cell-based, human; details: 48 h treatment
Description: as §1

[1] = test system: Ovarian cancer cell lines; test: NCI-60 five-dose, subpanel
Description: A measure of a compound’s selectivity for a given cell line is the ratio created by dividing the full panel mean graph midpoints (MG-MID) concentration by the individual subpanel MG-MID concentrations (obtained as the average sensitivity of all the cell lines in a given subpanel to the test compound).
as §2

SK-MEL-5 = format: cell-based
NCI-H460 = format: cell-based
MDA-MB-435 = format: cell-based
UACC-62 = format: cell-based
HCC-2998 = format: cell-based
K-562 = format: cell-based
SK-MEL-2 = format: cell-based
OVCAR-3 = format: cell-based
HT29 = format: cell-based
OVCAR-4 = format: cell-based
UO-31 = format: cell-based
NCI-H23 = format: cell-based
CCRF-CEM = format: cell-based
LOX IMVI = format: cell-based
SF-268 = format: cell-based
MOLT-4 = format: cell-based
[2] = Homo sapiens, read-out: GI50 Subpanel MID^b
[3] = Homo sapiens, five-dose, read-out: LC50 (the source's name)
[4] = Homo sapiens, one dose 10^-5 M, 48 h
[5] = Homo sapiens, one dose 10^-5 M, 48 h, read-out: % growth

Which GI50 (leukaemia cell lines; [2]) does the source give for `N#Cc1c(N)nc(S)nc1-c1ccc(Cl)cc1Cl` [Compound 1c, 4-Amino-6–(2,4-dichlorophenyl)-2-mercaptopyrimidine-5-carbonitrile] here?
Its GI50 is 0.33 µM.

And the GI50 (leukaemia cell lines; Homo sapiens, read-out: GI50 range, leukaemia cell lines)?
Its GI50 is 0.08 to 0.7 µM.

What about the CC50 (leukaemia cell lines; Homo sapiens, read-out: LC50, leukaemia) of the same molecule?
Its CC50 is over 100 µM.

And the “Selectivity ratio (full panel MID^a / subpanel MID^b, GI50 level)” value (leukaemia cell lines; leukaemia)?
Its value is 39.

And the GI50 (T-47D; Homo sapiens, T47D, five-dose)?
The GI50 was 9.87 µM.

And the CC50 (T-47D; Homo sapiens, T47D, five-dose, read-out: LC50 (the source's name))?
The CC50 was over 100 µM.

And the activity at 10 µM (T-47D; Homo sapiens, T47D, one dose 10^-5 M, 48 h, read-out: % growth)?
Its activity at 10 µM is 54.5%.

And the TGI (T-47D; five-dose)?
The TGI was 32.30 µM.

And the GI50 (OVCAR-5; Homo sapiens, five-dose)?
Its GI50 is 16.4 µM.

What about the CC50 (OVCAR-5; [3]) of the same molecule?
The CC50 was 63.2 µM.

What about the percent cell growth at 10 µM (OVCAR-5; [4]) of the same molecule?
Its percent cell growth at 10 µM is 93.5%.

And the TGI (OVCAR-5; five-dose)?
The TGI was 32.20 µM.

What about the GI50 (RXF 393; Homo sapiens) of the same molecule?
The GI50 was 12.7 µM.

What about the CC50 (RXF 393; Homo sapiens, read-out: LC50 (the source's name)) of the same molecule?
The CC50 was 52.2 µM.

What about the TGI (RXF 393) of the same molecule?
Its TGI is 25.70 µM.

What about the GI50 (SK-OV-3; Homo sapiens, five-dose) of the same molecule?
Its GI50 is 26.3 µM.

What about the LC50 (SK-OV-3; Homo sapiens, five-dose) of the same molecule?
Its LC50 is over 100 µM.

What about the % growth at 10 µM (SK-OV-3; [4]) of the same molecule?
The % growth at 10 µM was 126%.

What about the TGI (SK-OV-3; five-dose) of the same molecule?
Its TGI is 62.60 µM.

What about the GI50 (U251; Homo sapiens, U-251, five-dose) of the same molecule?
The GI50 was 13.4 µM.

What about the CC50 (U251; Homo sapiens, U-251, five-dose, read-out: LC50 (the source's name)) of the same molecule?
The CC50 was 68.9 µM.

And the % growth at 10 µM (U251; Homo sapiens, U-251, one dose 10^-5 M, 48 h)?
The % growth at 10 µM was 38.8%.

And the TGI (U251; five-dose)?
Its TGI is 30.40 µM.

And the GI50 (MCF7; Homo sapiens, five-dose)?
Its GI50 is 0.12 µM.

And the CC50 (MCF7; [3])?
Its CC50 is over 100 µM.

And the activity at 10 µM (MCF7; [5])?
The activity at 10 µM was 31.6%.

What about the TGI (MCF7; five-dose) of the same molecule?
Its TGI is 31.10 µM.

And the “% cells in G0/G1 (%DIP G1)” value (HL60 cells)?
Its value is 57.37%.

What about the “% cells in S phase” value (HL60 cells) of the same molecule?
The value was 33.07%.

What about the “% cells in G1 (%DIP G1)” value (leukaemia SR cells) of the same molecule?
Its value is 55.22%.

What about the “% cells in S phase” value (leukaemia SR cells) of the same molecule?
Its value is 31.89%.

And the GI50 [1, 2]?
Its GI50 is 19.2 µM.

What about the “Selectivity ratio (full panel MID^a / subpanel MID^b, GI50 level)” value ([1]; ovarian cancer) of the same molecule?
Its value is 0.7.

What about the GI50 (SK-MEL-5; Homo sapiens, five-dose) of the same molecule?
The GI50 was 5.56 µM.

And the CC50 (SK-MEL-5; [3])?
Its CC50 is 45 µM.

What about the activity at 10 µM (SK-MEL-5; [5]) of the same molecule?
Its activity at 10 µM is 58.1%.

And the TGI (SK-MEL-5; five-dose)?
Its TGI is 19.50 µM.

And the GI50 (NCI-H460; Homo sapiens, five-dose)?
The GI50 was 22.1 µM.

What about the CC50 (NCI-H460; [3]) of the same molecule?
Its CC50 is over 100 µM.

What about the activity at 10 µM (NCI-H460; [5]) of the same molecule?
The activity at 10 µM was 82.6%.

What about the TGI (NCI-H460; five-dose) of the same molecule?
The TGI was 56.80 µM.

What about the GI50 (MDA-MB-435; Homo sapiens, five-dose) of the same molecule?
Its GI50 is 10.5 µM.

And the CC50 (MDA-MB-435; [3])?
The CC50 was over 100 µM.

What about the activity at 10 µM (MDA-MB-435; [5]) of the same molecule?
Its activity at 10 µM is 25.3%.

And the TGI (MDA-MB-435; five-dose)?
Its TGI is 38.00 µM.

What about the GI50 (UACC-62; Homo sapiens, five-dose) of the same molecule?
The GI50 was 13.8 µM.

And the CC50 (UACC-62; [3])?
The CC50 was 57.6 µM.

And the % growth at 10 µM (UACC-62; [4])?
The % growth at 10 µM was 62.7%.

And the TGI (UACC-62; five-dose)?
The TGI was 28.20 µM.

What about the GI50 (HCC-2998; Homo sapiens, five-dose) of the same molecule?
The GI50 was 13 µM.

And the CC50 (HCC-2998; [3])?
The CC50 was 51.5 µM.

And the % growth at 10 µM (HCC-2998; [4])?
Its % growth at 10 µM is 83.3%.

What about the TGI (HCC-2998; five-dose) of the same molecule?
Its TGI is 25.90 µM.

And the GI50 (K-562; Homo sapiens, K562, five-dose)?
The GI50 was 0.14 µM.

And the CC50 (K-562; Homo sapiens, K562, five-dose, read-out: LC50 (the source's name))?
Its CC50 is over 100 µM.

What about the % growth at 10 µM (K-562; Homo sapiens, K562, one dose 10^-5 M, 48 h) of the same molecule?
The % growth at 10 µM was 36.9%.

What about the TGI (K-562; five-dose) of the same molecule?
Its TGI is over 100 µM.

And the GI50 (SK-MEL-2; Homo sapiens, five-dose)?
Its GI50 is 17.5 µM.

What about the LC50 (SK-MEL-2; Homo sapiens, five-dose) of the same molecule?
Its LC50 is 66.8 µM.

What about the % growth at 10 µM (SK-MEL-2; [4]) of the same molecule?
The % growth at 10 µM was 98.6%.

What about the TGI (SK-MEL-2; five-dose) of the same molecule?
The TGI was 34.20 µM.

And the GI50 (OVCAR-3; Homo sapiens, five-dose)?
The GI50 was 18.1 µM.

And the CC50 (OVCAR-3; [3])?
Its CC50 is over 100 µM.

What about the % growth at 10 µM (OVCAR-3; [4]) of the same molecule?
The % growth at 10 µM was 17.1%.

And the TGI (OVCAR-3; five-dose)?
Its TGI is 47.60 µM.

And the GI50 (HT29; Homo sapiens, HT-29, five-dose)?
The GI50 was 13.8 µM.

What about the CC50 (HT29; Homo sapiens, HT-29, five-dose, read-out: LC50 (the source's name)) of the same molecule?
The CC50 was 68.9 µM.

And the % growth at 10 µM (HT29; Homo sapiens, HT-29, one dose 10^-5 M, 48 h)?
The % growth at 10 µM was 24.7%.

And the TGI (HT29; five-dose)?
The TGI was 30.80 µM.

And the GI50 (OVCAR-4; Homo sapiens, five-dose)?
The GI50 was 32 µM.

What about the CC50 (OVCAR-4; [3]) of the same molecule?
Its CC50 is over 100 µM.

What about the % growth at 10 µM (OVCAR-4; [4]) of the same molecule?
The % growth at 10 µM was 81.2%.

What about the TGI (OVCAR-4; five-dose) of the same molecule?
The TGI was over 100 µM.

And the % cell growth at 10 µM (UO-31; Homo sapiens, UO-31, 48 h, one dose 10^-5 M, 48 h)?
Its % cell growth at 10 µM is 63.5%.

What about the GI50 (UO-31; Homo sapiens, five-dose) of the same molecule?
Its GI50 is 14.7 µM.

What about the CC50 (UO-31; [3]) of the same molecule?
Its CC50 is 53.6 µM.

What about the TGI (UO-31; five-dose) of the same molecule?
The TGI was 28.10 µM.

What about the GI50 (NCI-H23; Homo sapiens, five-dose) of the same molecule?
Its GI50 is 13.1 µM.

And the CC50 (NCI-H23; [3])?
The CC50 was 60.9 µM.

And the activity at 10 µM (NCI-H23; [5])?
The activity at 10 µM was 76.1%.

And the TGI (NCI-H23; five-dose)?
Its TGI is 28.30 µM.

What about the GI50 (CCRF-CEM; Homo sapiens, five-dose) of the same molecule?
Its GI50 is 0.3 µM.

What about the LC50 (concentration killing 50% of tumour cells) (CCRF-CEM; Homo sapiens, five-dose) of the same molecule?
The LC50 (concentration killing 50% of tumour cells) was over 100 µM.

And the % cell growth at 10 µM (CCRF-CEM; [4])?
Its % cell growth at 10 µM is 7.65%.

What about the TGI (CCRF-CEM; five-dose) of the same molecule?
Its TGI is 16.10 µM.

And the GI50 (LOX IMVI; Homo sapiens, five-dose)?
Its GI50 is 1.1 µM.

What about the CC50 (LOX IMVI; [3]) of the same molecule?
The CC50 was 40 µM.

And the activity at 10 µM (LOX IMVI; [5])?
The activity at 10 µM was -49.2%.

And the TGI (LOX IMVI; five-dose)?
The TGI was 15.10 µM.

And the “% growth” value (LOX IMVI; one dose 10^-5 M, 48 h)?
The value was -49.21%.

And the GI50 (SF-268; Homo sapiens, five-dose)?
Its GI50 is 18.1 µM.

What about the CC50 (SF-268; [3]) of the same molecule?
The CC50 was over 100 µM.

And the activity at 10 µM (SF-268; [5])?
The activity at 10 µM was 51%.

And the TGI (SF-268; five-dose)?
The TGI was 52.70 µM.

What about the GI50 (MOLT-4; Homo sapiens, five-dose) of the same molecule?
The GI50 was 0.7 µM.

And the CC50 (MOLT-4; [3])?
Its CC50 is over 100 µM.

And the activity at 10 µM (MOLT-4; [5])?
The activity at 10 µM was 6.11%.

And the TGI (MOLT-4; five-dose)?
Its TGI is 43.90 µM.
